Among the data in patent publication US20230340011A1 (Asteroid Therapeutics, priority 2022, published 2023) are IC50 and EC50 values, retold here.

For one test, the target named is SREBP-2 (Homo sapiens (Human), UniProt Q12772). Description: In vitro assay SREBP-2: PathHunter U2OS SREBP-2 Nuclear Translocation Cell Line, U18666A-stimulated. It counts as cell-based. To be noted: PathHunter U2OS SREBP-2 nuclear translocation cells, U18666A 10 μM, overnight (16 hours).
The target in a further test is LXRβ (Homo sapiens (Human), UniProt P55055). The experiment in a line: In vitro assay LXRβ: PathHunter NHR CHO cells, LXRβ / Steroid Receptor Co-activator Peptide enzyme fragment complementation. The format is cell-based. Conditions: PathHunter NHR CHO cells, full-length human LXRβ and SRCP, chemiluminescent signal; read-out: LXRβ PPI. The procedure, abridged: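 Enzyme fragment complementation read-out: CHO cells stably expressing ProLink-tagged full-length human LXRβ plus nuclear enzyme acceptor–SRCP fusion, seeded and held overnight at 37° C. Medium with charcoal-dextran filtered serum; final vehicle 1%. Chemiluminescence measured after signal generation.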

Where a name gives a salt, the structure may show the parent alone.

Chain of LXRβ (P55055 whole entry, the tested form may be a part): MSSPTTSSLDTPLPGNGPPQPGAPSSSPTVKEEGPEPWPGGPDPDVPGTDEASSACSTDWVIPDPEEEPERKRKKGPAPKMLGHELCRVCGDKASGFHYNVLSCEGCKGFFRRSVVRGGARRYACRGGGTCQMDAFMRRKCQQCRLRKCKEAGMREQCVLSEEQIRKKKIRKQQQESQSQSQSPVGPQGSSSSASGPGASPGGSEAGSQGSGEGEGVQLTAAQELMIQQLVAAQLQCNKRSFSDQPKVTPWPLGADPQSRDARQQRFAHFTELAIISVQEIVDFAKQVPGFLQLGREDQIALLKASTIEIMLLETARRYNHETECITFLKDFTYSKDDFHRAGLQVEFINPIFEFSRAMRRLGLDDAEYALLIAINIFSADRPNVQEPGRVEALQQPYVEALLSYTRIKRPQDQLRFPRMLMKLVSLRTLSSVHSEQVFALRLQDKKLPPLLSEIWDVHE

At SREBP-2, `CC(C)ON(C)C(=O)CC[C@@H](C)[C@H]1CC[C@H]2[C@@H]3CC=C4C[C@@H](O)CC[C@]4(C)[C@H]3CC[C@]12C` [Example 14, (R)-4-((3S,8S,9S,10R,13R,14S,17R)-3-hydroxy-10,13-dimethyl-2,3,4,7,8,9,10,11,12,13,14,15,16,17-tetradecahydro-1H-cyclopenta[a]phenanthren-17-yl)-N-isopropoxy-N-methylpentanamide] gave an IC50 of 0.25 to 1 µM. The EC50 on LXRβ was in the range of 0.25 to 1 µM.
As to `C[C@H](CCC(=O)N(C)OCCN)[C@H]1CC[C@H]2[C@@H]3CC=C4C[C@@H](O)CC[C@]4(C)[C@H]3CC[C@]12C` [Example 28, (R)—N-(2-aminoethoxy)-4-((3S,8S,9S,10R,13R,14S,17R)-3-hydroxy-10,13-dimethyl-2,3,4,7,8,9,10,11,12,13,14,15,16,17-tetradecahydro-1H-cyclopenta[a]phenanthren-17-yl)-N-methylpentanamide hydrochloride], the IC50 at SREBP-2 was 0.25 to 1 µM. In addition, at LXRβ, the EC50 was over 10 µM.
For the molecule `C[C@H](CCC(=O)N(C)OCCC(F)(F)F)[C@H]1CC[C@H]2[C@@H]3CC=C4C[C@@H](O)CC[C@]4(C)[C@H]3CC[C@]12C` [Example 29, (R)-4-((3S,8S,9S,10R,13R,14S,17R)-3-hydroxy-10,13-dimethyl-2,3,4,7,8,9,10,11,12,13,14,15,16,17-tetradecahydro-1H-cyclopenta[a]phenanthren-17-yl)-N-methyl-N-(3,3,3-trifluoropropoxy)pentanamide], at SREBP-2, the IC50 is under 0.25 µM. Further, the EC50 on LXRβ is over 10 µM.
As to `C=CCN1C[C@H]2CON(C(=O)CC[C@@H](C)[C@H]3CC[C@H]4[C@@H]5CC=C6C[C@@H](O)CC[C@]6(C)[C@H]5CC[C@]34C)[C@H]2C1` [Example 44, (R)-1-((3aR,6aR)-5-allylhexahydro-1H-pyrrolo[3,4-c]isoxazol-1-yl)-4-((3S,8S,9S,10R,13R,14S,17R)-3-hydroxy-10,13-dimethyl-2,3,4,7,8,9,10,11,12,13,14,15,16,17-tetradecahydro-1H-cyclopenta[a]phenanthren-17-yl)pentan-1-one], at SREBP-2, the IC50 lay in the range of 0.25 to 1 µM. Moreover, the EC50 at LXRβ is over 10 µM.
`C=CCN1C[C@@H]2CON(C(=O)CC[C@@H](C)[C@H]3CC[C@H]4[C@@H]5CC=C6C[C@@H](O)CC[C@]6(C)[C@H]5CC[C@]34C)[C@@H]2C1` [Example 46, (R)-1-((3aS,6aS)-5-allylhexahydro-1H-pyrrolo[3,4-c]isoxazol-1-yl)-4-((3S,8S,9S,10R,13R,14S,17R)-3-hydroxy-10,13-dimethyl-2,3,4,7,8,9,10,11,12,13,14,15,16,17-tetradecahydro-1H-cyclopenta[a]phenanthren-17-yl)pentan-1-one] gave an IC50 against SREBP-2 of 0.25 to 1 µM. For the same molecule, the EC50 on LXRβ is over 10 µM.
With `C[C@H](CCC(=O)N1OC(C)(C)[C@H]2COC[C@H]21)[C@H]1CC[C@H]2[C@@H]3CC=C4C[C@@H](O)CC[C@]4(C)[C@H]3CC[C@]12C` [Example 49, (R)-1-((3aR,6aS)-3,3-dimethyltetrahydro-1H,3H-furo[3,4-c]isoxazol-1-yl)-4-((3S,8S,9S,10R,13R,14S,17R)-3-hydroxy-10,13-dimethyl-2,3,4,7,8,9,10,11,12,13,14,15,16,17-tetradecahydro-1H-cyclopenta[a]phenanthren-17-yl)pentan-1-one], at SREBP-2, the IC50 fell in the range of 0.25 to 1 µM. For the same molecule, the EC50 on LXRβ fell in the range of 0.25 to 1 µM.
Consider `CON(CCO)C(=O)CC[C@@H](C)[C@H]1CC[C@H]2[C@@H]3CC=C4C[C@@H](O)CC[C@]4(C)[C@H]3CC[C@]12C` [Example 62, (R)-4-((3S,8S,9S,10R,13R,14S,17R)-3-hydroxy-10,13-dimethyl-2,3,4,7,8,9,10,11,12,13,14,15,16,17-tetradecahydro-1H-cyclopenta[a]phenanthren-17-yl)-N-(2-hydroxyethyl)-N-methoxypentanamide], for which the IC50 at SREBP-2 is 0.25 to 1 µM. For the same molecule, at LXRβ, the EC50 lay in the range of 0.25 to 1 µM.
The molecule `CON(CC(=O)O)C(=O)CC[C@@H](C)[C@H]1CC[C@H]2[C@@H]3CC=C4C[C@@H](O)CC[C@]4(C)[C@H]3CC[C@]12C` [Example 63, N—((R)-4-((3S,8S,9S,10R,13R,14S,17R)-3-hydroxy-10,13-dimethyl-2,3,4,7,8,9,10,11,12,13,14,15,16,17-tetradecahydro-1H-cyclopenta[a]phenanthren-17-yl)pentanoyl)-N-methoxyglycine] had an IC50 at SREBP-2 of over 10 µM. Besides, the EC50 at LXRβ was 0.25 to 1 µM.
`CON(CCN)C(=O)CC[C@@H](C)[C@H]1CC[C@H]2[C@@H]3CC=C4C[C@@H](O)CC[C@]4(C)[C@H]3CC[C@]12C` [Example 64, (R)—N-(2-aminoethyl)-4-((3S,8S,9S,10R,13R,14S,17R)-3-hydroxy-10,13-dimethyl-2,3,4,7,8,9,10,11,12,13,14,15,16,17-tetradecahydro-1H-cyclopenta[a]phenanthren-17-yl)-N-methoxypentanamide] displayed an IC50 on SREBP-2 of 0.25 to 1 µM. In addition, at LXRβ, the EC50 is under 0.25 µM.
Molecule `CON(C(=O)CC[C@@H](C)[C@H]1CC[C@H]2[C@@H]3CC=C4C[C@@H](O)CC[C@]4(C)[C@H]3CC[C@]12C)C(C)CO` (stereo partly drawn) [Example 66, (4R)-4-((3S,8S,9S,10R,13R,14S,17R)-3-hydroxy-10,13-dimethyl-2,3,4,7,8,9,10,11,12,13,14,15,16,17-tetradecahydro-1H-cyclopenta[a]phenanthren-17-yl)-N-(1-hydroxypropan-2-yl)-N-methoxypentanamide] gave an IC50 against SREBP-2 of 0.25 to 1 µM. On LXRβ, the EC50 lay within 0.25 to 1 µM.
For `CON(C[C@H](C)O)C(=O)CC[C@@H](C)[C@H]1CC[C@H]2[C@@H]3CC=C4C[C@@H](O)CC[C@]4(C)[C@H]3CC[C@]12C` [Example 69, (R)-4-((3S,8S,9S,10R,13R,14S,17R)-3-hydroxy-10,13-dimethyl-2,3,4,7,8,9,10,11,12,13,14,15,16,17-tetradecahydro-1H-cyclopenta[a]phenanthren-17-yl)-N—((S)-2-hydroxypropyl)-N-methoxypentanamide], on SREBP-2, the IC50 is under 0.25 µM. Also, the EC50 on LXRβ lay within 0.25 to 1 µM.
Turning to `CON(C[C@@H](C)O)C(=O)CC[C@@H](C)[C@H]1CC[C@H]2[C@@H]3CC=C4C[C@@H](O)CC[C@]4(C)[C@H]3CC[C@]12C` [Example 70, (R)-4-((3S,8S,9S,10R,13R,14S,17R)-3-hydroxy-10,13-dimethyl-2,3,4,7,8,9,10,11,12,13,14,15,16,17-tetradecahydro-1H-cyclopenta[a]phenanthren-17-yl)-N—((R)-2-hydroxypropyl)-N-methoxypentanamide], the IC50 on SREBP-2 was 0.25 to 1 µM. Further, the EC50 on LXRβ is 0.25 to 1 µM.
As to `CON(C(=O)CC[C@@H](C)[C@H]1CC[C@H]2[C@@H]3CC=C4C[C@@H](O)CC[C@]4(C)[C@H]3CC[C@]12C)[C@H](C)CO` [Example 71, (R)-4-((3S,8S,9S,10R,13R,14S,17R)-3-hydroxy-10,13-dimethyl-2,3,4,7,8,9,10,11,12,13,14,15,16,17-tetradecahydro-1H-cyclopenta[a]phenanthren-17-yl)-N—((R)-1-hydroxypropan-2-yl)-N-methoxypentanamide], the IC50 at SREBP-2 was in the range of 0.25 to 1 µM. The EC50 on LXRβ lay in the range of 0.25 to 1 µM.
On to `CON(C(=O)CC[C@@H](C)[C@H]1CC[C@H]2[C@@H]3CC=C4C[C@@H](O)CC[C@]4(C)[C@H]3CC[C@]12C)[C@@H](C)CO` [Example 72, (R)-4-((3S,8S,9S,10R,13R,14S,17R)-3-hydroxy-10,13-dimethyl-2,3,4,7,8,9,10,11,12,13,14,15,16,17-tetradecahydro-1H-cyclopenta[a]phenanthren-17-yl)-N—((S)-1-hydroxypropan-2-yl)-N-methoxypentanamide], for which the IC50 against SREBP-2 was in the range of 0.25 to 1 µM. The EC50 at LXRβ lay in the range of 0.25 to 1 µM.
Regarding `C[C@H](CCC(=O)N1CCC[C@@H](c2ccccc2)C1)[C@H]1CC[C@H]2[C@@H]3CC=C4C[C@@H](O)CC[C@]4(C)[C@H]3CC[C@]12C` [Example 76, (R)-4-((3S,8S,9S,10R,13R,14S,17R)-3-hydroxy-10,13-dimethyl-2,3,4,7,8,9,10,11,12,13,14,15,16,17-tetradecahydro-1H-cyclopenta[a]phenanthren-17-yl)-1-((S)-3-phenylpiperidin-1-yl)pentan-1-one], on SREBP-2, the IC50 was under 0.25 µM. In addition, the EC50 at LXRβ lay in the range of 1 to 10 µM.
Taken in the same sequence, the figures for `C[C@H](CCC(=O)N1CCC[C@H](c2ccccc2)C1)[C@H]1CC[C@H]2[C@@H]3CC=C4C[C@@H](O)CC[C@]4(C)[C@H]3CC[C@]12C` [Example 77, (R)-4-((3S,8S,9S,10R,13R,14S,17R)-3-hydroxy-10,13-dimethyl-2,3,4,7,8,9,10,11,12,13,14,15,16,17-tetradecahydro-1H-cyclopenta[a]phenanthren-17-yl)-1-((R)-3-phenylpiperidin-1-yl) pentan-1-one] were under 0.25 µM and 1 to 10 µM.
At SREBP-2, `C[C@H](CCC(=O)N1C[C@@H]2C[C@]2(c2ccccc2)C1)[C@H]1CC[C@H]2[C@@H]3CC=C4C[C@@H](O)CC[C@]4(C)[C@H]3CC[C@]12C` [Example 78, (4R)-4-((3S,8S,9S,10R,13R,14S,17R)-3-hydroxy-10,13-dimethyl-2,3,4,7,8,9,10,11,12,13,14,15,16,17-tetradecahydro-1H-cyclopenta[a]phenanthren-17-yl)-1-(1-phenyl-3-azabicyclo[3.1.0]hexan-3-yl)pentan-1-one] yielded an IC50 of under 0.25 µM. Also, the EC50 on LXRβ fell in the range of 1 to 10 µM.
On SREBP-2, `C[C@H](CCC(=O)N1CCC(F)(F)CC1)[C@H]1CC[C@H]2[C@@H]3CC=C4C[C@@H](O)CC[C@]4(C)[C@H]3CC[C@]12C` [Example 79, (R)-1-(4,4-difluoropiperidin-1-yl)-4-((3S,8S,9S,10R,13R,14S,17R)-3-hydroxy-10,13-dimethyl-2,3,4,7,8,9,10,11,12,13,14,15,16,17-tetradecahydro-1H-cyclopenta[a]phenanthren-17-yl) pentan-1-one] gave an IC50 of under 0.25 µM. Also, the EC50 at LXRβ lay within 1 to 10 µM.
